According to EPA's ToxValDB 9.5 (doi:10.2903/j.efsa.2006.72r):
≈ marks a conversion by molar mass, not a printed value.

Key:
[1] = tested on: Oryctolagus sp.; conditions: reproduction developmental; inhalation
[2] = tested on: Anas platyrhynchos; conditions: short-term; oral; feed; mortality
[3] = tested on: Daphnia magna; conditions: chronic/long-term; duration: 21 days; mortality
[4] = tested on: Rattus norvegicus; conditions: for LD50: acute, mortality; for NOAEL: histopathology: neoplastic
[5] = tested on: Canidae; conditions: short-term; duration: 2 weeks; Dog Other
[6] = tested on: Folsomia candida; conditions: not reported; mortality
[7] = tested on: Cyprinodon variegatus; conditions: acute; duration: 96 hours; mortality
[8] = tested on: Colinus virginianus; conditions: acute; oral; diet; mortality
[9] = tested on: Mus musculus; conditions: chronic, duration: 2 years
[10] = tested on: Pimephales promelas; conditions: chronic/long-term; duration: 33 days; growth
[11] = tested on: Tagia sp.
[12] = tested on: Oncorhynchus mykiss; conditions: acute; duration: 96 hours; mortality
[13] = tested on: Landoltia sp.; conditions: acute; duration: 14 days; mortality

| SMILES | NOAEL [1] [mg/L] | LC50 [2] [mg/kg-day] | NOEC [3] [mg/L] | LD50 ([4]; inhalation) [mg/L] | LD50 ([4]; oral) [mg/kg] | NOAEL ([4]; chronic, duration: 2 years, oral, diet) [mg/kg-day] | NOAEL ([4]; subchronic, duration: 90 days, inhalation) [mg/kg-day] | NOAEL [5] [mg/kg-day] | LEL [6] [g/ha] | LC50 [7] [mg/L] | LD50 [8] [mg/kg] | NOAEL ([9]; inhalation, histopathology: neoplastic) [mg/kg-day] | NOAEL ([9]; oral, M/F) [mg/kg-day] | NOEC [10] [mg/L] | LC50 ([11]; acute, duration: 14 days, mortality) [mg/kg] | NOEC ([11]; chronic/long-term, duration: 56 days, reproduction) [mg/kg] | LC50 [12] [mg/L] | LC50 [13] [mg/L] |
| --- | --- | --- | --- | --- | --- | --- | --- | --- | --- | --- | --- | --- | --- | --- | --- | --- | --- | --- |
| ClC=CCCl [1,3-Dichloropropene] | 0.0908 | > 1260 | 0.0701 | 2.7 | 130 | 2.5 | 9.72 | 20 | 329000 | 0.87 (≈ 7.84 µM) | 140 | 4.43 | 2.5 | 0.032 | 55.6 | 770 | – | – |
| O=C(O)C=CCl [3-Chloroacrylic acid] | – | – | – | – | 91 | – | – | – | – | – | – | – | – | – | – | – | 69.5 (≈ 653 µM) | 0.26 (≈ 2.44 µM) |
